No end group written: not given here.
Experiments:
pancreatic cancer [1] = assay: Phase I/II clinical study: tumor burden, stable disease and days on study in pancreatic cancer (Part 2); format: in vivo, human
Procedure: VT1021 was evaluated in a recently completed phase I/II open-label, multicenter, dose escalation (Part 1) and expansion (Part 2) clinical study in advanced, refractory, solid tumors including pancreatic cancer (NCT03364400). Seven subjects with pancreatic cancer were dosed in Part 1 and 32 were dosed in Part 2, 17 of which were considered evaluable as having completed ≥1 cycle of VT1021 treatment and tumor imaging during cycle 2. […] In the “expansion stage” of the VT1021-01 Study, subjects diagnosed with recurrent GBM, pancreatic cancer, ovarian cancer and other solid tumors were enrolled. They were treated with VT1021 at 11.8 mg/kg, twice weekly by IV infusion. The blood samples were collected from the clinical study at pre-treatment, 0, 2, 4, 6 hours post treatment to measure the levels of VT1021 (FIG. 2). The tumor biopsy samples prior to treatment and during treatment were collected from the clinical study to measure expression levels of biomarkers including CD36 and CD47, as well as cell surface markers for immune cell populations in the TME by immunohistochemistry assays (FIG. 3, FIG. 4, FIG. 5). The correlation between days on study and tumor shrinkage versus expression profile of CD36 and CD47 was analyzed (FIG. 4). The general expression profile of CD36 and CD47 has been assessed by IHC on Tumor Tissue Microarrays (TMAs), which contain biopsy samples collected from pancreatic cancer patients. TMAs were purchased from commercial sources, not related to the VT1021-01 clinical study. […] A waterfall plot illustrates changes in tumor burden for 14 subjects in Part 2 with pancreatic cancer with measurable disease.

[2] = tested on: tumor microenvironment (TME) in pancreatic cancer; assay: Modulation of the TME in paired tumor biopsies by multiplex ion beam image analysis, pancreatic cancer; format: in vivo, human; conditions: 8 pairs of pancreatic cancer biopsies from Parts 1 & 2
Procedure: FIG. 5A and FIG. 5B are charts showing that VT1021 modulates the TME in pancreatic cancer.
In the “expansion stage” of the VT1021-01 Study, subjects diagnosed with recurrent GBM, pancreatic cancer, ovarian cancer and other solid tumors were enrolled. They were treated with VT1021 at 11.8 mg/kg, twice weekly by IV infusion. The blood samples were collected from the clinical study at pre-treatment, 0, 2, 4, 6 hours post treatment to measure the levels of VT1021 (FIG. 2). The tumor biopsy samples prior to treatment and during treatment were collected from the clinical study to measure expression levels of biomarkers including CD36 and CD47, as well as cell surface markers for immune cell populations in the TME by immunohistochemistry assays (FIG. 3, FIG. 4, FIG. 5). The correlation between days on study and tumor shrinkage versus expression profile of CD36 and CD47 was analyzed (FIG. 4). The general expression profile of CD36 and CD47 has been assessed by IHC on Tumor Tissue Microarrays (TMAs), which contain biopsy samples collected from pancreatic cancer patients. TMAs were purchased from commercial sources, not related to the VT1021-01 clinical study.
FIG. 5A and FIG. 5 B are charts showing that VT1021 modulates the TME in pancreatic cancer. Modulation of the TME by VT1021 in paired biopsies from subjects with pancreatic cancer was assessed by multiplex ion beam image analysis. Representative images from 1 of 3 regions of interest in tumor biopsies from a subject obtained pre-treatment (pre) and on-study (on). […] TSP-1+increased >2 fold in on-study biopsies compared to pre-treatment, both the CTL/Treg and M1/M2 macrophage ratios increased and the percent of M1 macrophages increased >3 fold in the TME after treatment with VT1021.

[3] = tested on: circulating immune cells (CTLs, helper T cells, MDSCs); assay: Flow cytometry of immune cells isolated from whole blood of rGBM subjects; format: in vivo, human; conditions: Cycle 1 Day 1
Text: FIG. 11A, FIG. 11B, FIG. 11C, FIG. 11D, FIG. 11E, and FIG. 11F are charts showing modulation of the immune system by VT1021 in circulation and in the TME. […] Proliferating CTLs increased ≥1.5 fold regardless of clinical response, proliferating helper T cells increased ≥1.5 fold in CR/PR and PD subjects while monocytic MDSCs (mMDSCs) and activated MDSCs decreased≤0.5 fold in all evaluable subjects. […] Percent of M1 increased 1.9-fold while M2 decreased 0.6-fold after treatment. […] CTLs increased >4 fold while total and mMDSCs […] >15 fold in the on-study biopsy compared to pre-treatment.

pancreatic cancer [4] = assay: Example 3: treatment of pancreatic cancer with dually elevated CD36 and CD47; format: in vivo; conditions: expected
Procedure: (§1) Subjects having pancreatic cancer are identified using standard clinical protocols. Samples are obtained and levels of CD36 and CD47 measured using methods known in the art. Subjects presenting with dually elevated CD36 and CD47 levels as compared to suitable controls are selected for dosing with VT1021. Subjects advancing to the treatment phase are administered VT1021. Frequency and dosage are determined in accordance with the stage and severity of disease accordingly to methods standard in the art. Tumor burden and other disease indicators are measured and data compiled using methods known in the art.

GBM = assay: Example 4: treatment of GBM with dually elevated CD36 and CD47; format: in vivo; conditions: expected
Procedure: as §1, with “GBM” for “pancreatic cancer”

[5] = whole blood before and after 6 hours, all evaluable subjects, decreased

Question: Which results are given for “cyclic DWLPK (also: cyclic, mode of cyclisation not given here) [VT1021, 5-amino acid cyclic peptide from prosaposin; Tsp-1-inducing agent]”?
Answer: subjects with stable disease (pancreatic cancer [1]; Part 2 pancreatic cancer, all dually high CD36 and CD47): 3 subjects; subjects with reduction of tumor burden (pancreatic cancer [1]; of 14 Part 2 pancreatic cancer subjects with measurable disease, all dually high CD36 and CD47): 5 subjects; average time remained on the study (pancreatic cancer [1]; the 5 pancreatic cancer subjects with reduction of tumor burden (dually high)): 105 days; CTL/Treg ratio in the TME after treatment [2]: increased; M1/M2 macrophage ratio in the TME after treatment [2]: increased; TSP-1+ mean intensity, increase on-study vs pre-treatment [2]: > 2 fold; percent of M1 macrophages, increase in the TME after treatment [2]: > 3 fold; Proliferating CTLs, fold change ([3]; whole blood before and after 6 hours of treatment, regardless of clinical response, increased): ≥ 1.5 fold; proliferating helper T cells, fold change ([3]; whole blood before and after 6 hours, CR/PR and PD subjects, increased): ≥ 1.5 fold; activated MDSCs, fold change [3, 5]: ≤ 0.5 fold; monocytic MDSCs (mMDSCs), fold change [3, 5]: ≤ 0.5 fold; tumor burden compared to control subjects (pancreatic cancer [4]): reduction in tumor burden; tumor burden compared to control subjects (GBM): reduction in tumor burden

Source: patent publication US20250041379A1, “METHODS AND COMPOSITIONS FOR THE TREATMENT OF CANCER” (Vigeo Therapeutics, Inc., priority 2021, published 2025)
